Activity calls are given as the source filed them.
Legend:
[1] = molecular target: Voltage-gated inwardly rectifying potassium channel KCNH2 (Homo sapiens, UniProt Q12809); details: Potency;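 note: confirmatory quantitative high-throughput screen measuring inhibition of hERG channel activity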
[2] = molecular target: Cytochrome P450 3A4 (Homo sapiens, UniProt P08684); details: Potency;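 note: confirmatory qHTS run detecting inhibitors and substrates of CYP3A4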
[3] = test system: CHO; experiment: CHO cell viability loss, potency – luminescence, cytotoxicity control for TLR9-MyD88 binding inhibitor project, dose response (AID 588339); type: functional, cell-based, hamster; details: Cricetulus griseus;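 note: CHO cells stably coexpressing TLR9 and MyD88 fusions from primary screen; compound exposure lasted 48 hours before viability readout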
[4] = molecular target: Heat shock protein HSP 90-alpha (Homo sapiens, UniProt P07900); type: functional, organism-based
[5] = test system: BJ; experiment: BJ-TERT fibroblast viability loss – cell-based, RAS-independent, luminescence, dose response (AID 1933); type: functional; details: Homo sapiens
[6] = molecular target: T1, Sphingosine 1-phosphate receptor 4 (Homo sapiens, UniProt O95977); experiment: Fluorescence dose response cell-based high throughput screening assay for antagonists of the Sphingosine 1-Phosphate Receptor 4 (S1P4). [Related pubchem assays: 1524 (Confirmation in triplicates.), 1510 (Primary screen.)]; type: functional
T1 sequence (O95977 whole entry): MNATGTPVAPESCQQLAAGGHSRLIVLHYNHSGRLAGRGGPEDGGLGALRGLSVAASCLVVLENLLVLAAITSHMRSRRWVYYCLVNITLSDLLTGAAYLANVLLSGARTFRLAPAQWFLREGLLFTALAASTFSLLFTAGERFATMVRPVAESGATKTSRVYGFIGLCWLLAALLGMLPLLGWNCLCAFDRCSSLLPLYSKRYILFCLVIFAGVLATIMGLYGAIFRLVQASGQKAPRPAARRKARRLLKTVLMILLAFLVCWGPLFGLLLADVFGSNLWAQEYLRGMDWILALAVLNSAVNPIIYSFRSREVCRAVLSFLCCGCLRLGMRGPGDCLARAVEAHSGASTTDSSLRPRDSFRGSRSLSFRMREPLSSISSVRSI

[7] = test system: BJ; experiment: cells; type: functional, cell-based; details: Homo sapiens
[8] = test system: INS1; experiment: INS-1E survival protection against cytokine death – cell-based, luminescence, retest, dose response (AID 449756); type: functional; details: Rattus norvegicus;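 note: cell death triggered by IL-1 beta plus TNF-alpha plus IFN-gamma mixture; protective hits raise ATP signal compared with cytokine alone wells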
[9] = molecular target: T2, Heat shock factor protein 1 (Mus musculus, UniProt P38532); experiment: decrease of HSF1-responsive luciferase luminescence – cell-based, NIH3T3, dose retest, confirmation (AID 2382); type: functional;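 note: NIH3T3 fibroblasts with HSF1-driven luciferase reporter stressed by proteasome inhibitor MG132; luminescence from HSF1-driven luciferase expression after 8 hours of MG132 stress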
T2 sequence (P38532 whole entry): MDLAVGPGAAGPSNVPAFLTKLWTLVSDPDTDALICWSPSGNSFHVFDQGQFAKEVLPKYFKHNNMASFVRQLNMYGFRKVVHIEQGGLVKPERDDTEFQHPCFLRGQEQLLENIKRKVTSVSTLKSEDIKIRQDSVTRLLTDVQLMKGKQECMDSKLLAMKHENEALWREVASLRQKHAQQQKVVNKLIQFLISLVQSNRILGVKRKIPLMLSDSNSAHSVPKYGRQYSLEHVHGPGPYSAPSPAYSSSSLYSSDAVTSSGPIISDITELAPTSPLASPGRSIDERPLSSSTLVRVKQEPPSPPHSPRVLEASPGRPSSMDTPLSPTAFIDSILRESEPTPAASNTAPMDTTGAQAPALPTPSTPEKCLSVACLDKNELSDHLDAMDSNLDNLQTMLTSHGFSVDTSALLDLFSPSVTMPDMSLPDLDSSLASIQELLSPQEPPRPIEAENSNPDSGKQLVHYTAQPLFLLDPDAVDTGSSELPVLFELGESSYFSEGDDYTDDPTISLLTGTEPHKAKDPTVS

[10] = molecular target: Beta Lactamase (Pseudomonas aeruginosa, UniProt Q932Y6); experiment: BLA reporter interference, concentration series – BLA reporter cells, FRET fluorescence, artefact control for TLR9-MyD88 binding inhibitor project, dose response (AID 588341); type: cell-based;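 note: cell based assay in CHO-K1 cells stably expressing beta-lactamase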
Sequence of Beta Lactamase (Q932Y6 whole entry): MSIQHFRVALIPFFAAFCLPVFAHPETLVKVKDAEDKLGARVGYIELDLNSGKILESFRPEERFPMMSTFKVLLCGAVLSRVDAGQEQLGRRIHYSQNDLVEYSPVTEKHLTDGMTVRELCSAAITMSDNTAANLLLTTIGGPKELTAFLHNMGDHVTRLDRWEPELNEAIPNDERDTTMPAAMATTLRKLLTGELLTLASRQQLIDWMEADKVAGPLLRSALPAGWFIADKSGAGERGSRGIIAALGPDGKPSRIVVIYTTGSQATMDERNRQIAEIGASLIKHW

[11] = molecular target: Beta-galactosidase (Escherichia coli, UniProt Q8VNN2); experiment: PubChem AID 485352; type: functional
Sequence of Beta-galactosidase (Q8VNN2 whole entry): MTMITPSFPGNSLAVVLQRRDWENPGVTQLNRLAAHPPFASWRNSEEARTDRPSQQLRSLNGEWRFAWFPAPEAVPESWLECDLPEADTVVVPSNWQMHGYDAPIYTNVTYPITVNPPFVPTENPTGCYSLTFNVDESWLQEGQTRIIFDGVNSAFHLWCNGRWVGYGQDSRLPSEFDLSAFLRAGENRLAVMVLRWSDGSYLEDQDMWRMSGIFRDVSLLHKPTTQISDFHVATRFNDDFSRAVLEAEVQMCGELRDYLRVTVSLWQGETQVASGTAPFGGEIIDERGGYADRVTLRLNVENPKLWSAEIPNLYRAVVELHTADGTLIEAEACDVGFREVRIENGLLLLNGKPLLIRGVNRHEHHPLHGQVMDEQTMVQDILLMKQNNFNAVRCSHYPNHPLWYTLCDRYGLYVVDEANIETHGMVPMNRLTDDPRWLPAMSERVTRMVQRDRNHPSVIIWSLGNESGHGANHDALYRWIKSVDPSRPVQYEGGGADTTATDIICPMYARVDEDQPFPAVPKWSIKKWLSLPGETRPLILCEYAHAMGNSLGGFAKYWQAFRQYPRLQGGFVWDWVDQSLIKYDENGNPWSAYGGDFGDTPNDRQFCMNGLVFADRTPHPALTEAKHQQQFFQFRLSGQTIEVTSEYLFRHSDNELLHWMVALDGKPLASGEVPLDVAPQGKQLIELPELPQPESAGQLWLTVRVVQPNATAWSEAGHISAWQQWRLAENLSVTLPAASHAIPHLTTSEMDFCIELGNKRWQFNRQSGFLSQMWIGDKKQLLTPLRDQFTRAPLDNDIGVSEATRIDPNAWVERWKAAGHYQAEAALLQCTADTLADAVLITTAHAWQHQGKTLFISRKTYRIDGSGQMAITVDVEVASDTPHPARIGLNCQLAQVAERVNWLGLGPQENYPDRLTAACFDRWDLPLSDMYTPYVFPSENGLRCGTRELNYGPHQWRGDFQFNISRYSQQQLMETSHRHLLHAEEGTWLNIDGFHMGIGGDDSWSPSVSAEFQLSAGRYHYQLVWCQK

[12] = molecular target: Sphingosine 1-phosphate receptor 1 (Homo sapiens, UniProt P21453); type: functional;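 note: Tango beta-arrestin reporter U2OS cells stimulated with S1P near its EC80; inhibitor potency meaning antagonism of receptor activation by the natural agonist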
Sequence of Sphingosine 1-phosphate receptor 1 (P21453 whole entry): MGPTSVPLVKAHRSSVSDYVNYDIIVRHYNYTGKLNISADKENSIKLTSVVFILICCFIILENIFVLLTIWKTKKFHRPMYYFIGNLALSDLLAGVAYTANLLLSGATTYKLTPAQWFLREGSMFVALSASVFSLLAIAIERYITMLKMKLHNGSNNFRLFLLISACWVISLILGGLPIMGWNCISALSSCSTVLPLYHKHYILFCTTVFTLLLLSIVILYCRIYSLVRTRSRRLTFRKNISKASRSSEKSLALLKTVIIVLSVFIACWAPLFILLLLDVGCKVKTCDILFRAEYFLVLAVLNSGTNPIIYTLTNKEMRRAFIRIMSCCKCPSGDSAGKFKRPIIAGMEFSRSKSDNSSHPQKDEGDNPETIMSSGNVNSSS

[13] = test system: BJ; experiment: BJ-TERT-LT-ST fibroblast viability loss – cell-based, RAS-independent, luminescence, dose response (AID 1935); type: functional; details: Homo sapiens;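 note: BJ fibroblasts immortalized with TERT plus LT and ST oncogenes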
[14] = molecular target: Type-1 angiotensin II receptor (Homo sapiens, UniProt P30556); experiment: antagonism of angiotensin II type 1 receptor – cell-based, uHTS hits, selectivity assay for APJ receptor antagonist project, dose response (AID 463214); type: functional;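 note: antagonist potency against angiotensin II stimulated AT1 response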
Sequence of Type-1 angiotensin II receptor (P30556 whole entry): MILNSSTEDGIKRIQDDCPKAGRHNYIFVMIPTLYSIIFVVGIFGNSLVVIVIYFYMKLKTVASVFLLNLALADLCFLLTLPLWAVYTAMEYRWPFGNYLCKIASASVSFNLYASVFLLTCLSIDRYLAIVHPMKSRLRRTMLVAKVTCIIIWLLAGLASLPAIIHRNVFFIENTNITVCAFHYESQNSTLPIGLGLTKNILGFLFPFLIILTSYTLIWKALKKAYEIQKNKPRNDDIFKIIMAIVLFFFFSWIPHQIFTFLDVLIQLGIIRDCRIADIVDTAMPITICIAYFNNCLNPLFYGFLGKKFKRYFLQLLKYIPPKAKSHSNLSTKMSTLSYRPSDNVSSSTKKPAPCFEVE

[15] = DRD fibroblast viability loss – cell-based, non-viral oncogenic, luminescence, dose response (AID 1934); type: functional; details: Homo sapiens
[16] = molecular target: T1, Sphingosine 1-phosphate receptor 4; experiment: Late stage fluorescence dose response cell-based screening assay for antagonists of the Sphingosine 1-Phosphate Receptor 4 (S1P4). [Related pubchem assays: 1524 (Confirmation screen (S1P4 antagonists).), 1510 (Primary screen (S1P4 antagonists).), 1853 (Summary AID (S1P4 antagonists).), 1692 (Dose response screen (S1P4 antagonists).)]; type: functional

Sequence of Voltage-gated inwardly rectifying potassium channel KCNH2 (Q12809 whole entry): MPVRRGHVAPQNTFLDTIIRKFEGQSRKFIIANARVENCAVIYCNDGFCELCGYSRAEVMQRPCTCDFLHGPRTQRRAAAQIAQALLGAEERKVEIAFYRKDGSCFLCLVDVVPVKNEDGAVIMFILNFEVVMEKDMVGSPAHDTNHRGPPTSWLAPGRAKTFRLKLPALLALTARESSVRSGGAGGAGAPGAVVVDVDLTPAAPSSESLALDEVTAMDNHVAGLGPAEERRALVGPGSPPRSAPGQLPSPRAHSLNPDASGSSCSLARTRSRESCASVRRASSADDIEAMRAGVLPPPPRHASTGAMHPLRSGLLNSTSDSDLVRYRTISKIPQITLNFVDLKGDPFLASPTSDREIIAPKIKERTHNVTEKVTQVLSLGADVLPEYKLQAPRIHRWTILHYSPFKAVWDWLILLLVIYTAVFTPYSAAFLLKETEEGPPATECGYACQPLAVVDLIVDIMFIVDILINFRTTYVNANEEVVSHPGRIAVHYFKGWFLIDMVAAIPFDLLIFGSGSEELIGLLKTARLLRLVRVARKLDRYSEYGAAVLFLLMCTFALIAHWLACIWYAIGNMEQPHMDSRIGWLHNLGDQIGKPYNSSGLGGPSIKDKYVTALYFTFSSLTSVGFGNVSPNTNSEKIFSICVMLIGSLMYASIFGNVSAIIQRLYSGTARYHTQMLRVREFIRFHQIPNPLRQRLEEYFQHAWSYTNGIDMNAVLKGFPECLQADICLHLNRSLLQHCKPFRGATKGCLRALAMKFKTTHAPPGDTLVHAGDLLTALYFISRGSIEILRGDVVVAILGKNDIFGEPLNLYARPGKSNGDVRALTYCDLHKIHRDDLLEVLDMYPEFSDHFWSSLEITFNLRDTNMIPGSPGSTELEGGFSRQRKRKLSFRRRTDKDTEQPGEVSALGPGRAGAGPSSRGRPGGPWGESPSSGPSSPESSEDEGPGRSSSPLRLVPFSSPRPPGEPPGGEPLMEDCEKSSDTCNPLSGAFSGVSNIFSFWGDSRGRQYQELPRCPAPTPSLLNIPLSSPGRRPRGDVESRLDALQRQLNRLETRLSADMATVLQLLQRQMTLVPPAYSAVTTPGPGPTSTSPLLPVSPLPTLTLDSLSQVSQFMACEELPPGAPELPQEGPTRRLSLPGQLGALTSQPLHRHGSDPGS
Sequence of Cytochrome P450 3A4 (P08684 whole entry, the tested form may be a part): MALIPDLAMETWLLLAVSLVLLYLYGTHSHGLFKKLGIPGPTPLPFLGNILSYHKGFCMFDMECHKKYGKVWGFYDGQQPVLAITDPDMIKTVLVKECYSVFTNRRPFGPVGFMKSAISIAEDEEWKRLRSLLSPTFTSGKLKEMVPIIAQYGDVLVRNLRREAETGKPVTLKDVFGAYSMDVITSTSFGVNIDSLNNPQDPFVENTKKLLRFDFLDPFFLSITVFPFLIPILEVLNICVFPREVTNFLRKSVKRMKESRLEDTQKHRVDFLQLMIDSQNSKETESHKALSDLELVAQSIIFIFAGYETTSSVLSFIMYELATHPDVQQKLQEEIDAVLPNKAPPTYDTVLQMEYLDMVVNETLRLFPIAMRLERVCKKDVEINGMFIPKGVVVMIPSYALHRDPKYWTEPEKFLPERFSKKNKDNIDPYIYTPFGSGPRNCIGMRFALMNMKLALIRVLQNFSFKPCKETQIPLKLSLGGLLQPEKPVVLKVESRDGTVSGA

## Clc1ccc(C(Cl)(Cl)Cl)c(Cl)c1
[1]
  AC50: 20 µM (inconclusive)
[2]
  AC50: 31.6 µM (inconclusive)

## O=[N+]([O-])c1cnc(Sc2ccncn2)s1
[3]
  IC50: 1.29 µM (active)
[4]
  AC50: 1.49 µM (active)
[5]
  EC50: 2.21 µM (active)
[6]
  IC50: 860 nM (active)
[7]
  EC50: 8.38 µM (active)
[8]
  AC50: 4.35 µM (active)
[9]
  EC50: 4.12 µM (active)
[10]
  IC50: > 49.7 µM (inactive)
[11]
  EC50: > 40 µM (inactive)
[12]
  IC50: 15 µM (not active)
[13]
  EC50: 4.97 µM (inconclusive)
[14]
  IC50: 5.67 µM (active)
[15]
  EC50: 5.64 µM (active)
[16]
  IC50: 1.72 µM (not active)

From ChEMBL document CHEMBL1201862, “PubChem BioAssay data set” (2004)
